Laboratory results taken from publication PMC12656268, “Venom Peptides Across Asian and American Tarantulas Utilize Dual Pharmacology to Target Activation and Fast Inactivation of Voltage-Gated Sodium Channels” (Toxins, 2025).
Positions of bridges follow the written chain, without caps; N, C: chain ends. Residues, ends and D or L forms follow the SMILES beside them.

Legend:
[1] = biological target: hNaV1.1 (Homo sapiens, UniProt P35498); test: hNaV1.1 peak current inhibition, automated whole-cell patch clamp (QPatch 16X); type: cell-based; conditions: for IC50: HEK293 + β1, holding −80 mV, 20 ms step to 0 mV from −120 mV 200 ms prepulse, 5 min incubation, mean ± SEM, 3 to 9 independent experiments, read-out: IC50, inhibition of peak current, NaV1.1
Method: (§1) Unless otherwise specified, all cell culture reagents were obtained from Life Technologies (Carlsbad, CA, USA). The human neuroblastoma cell line SH-SY5Y (ATCC CRL-2266; Manassas, VA, USA) was maintained in RPMI medium supplemented with 15% fetal bovine serum (FBS) and 2 mM L-glutamine. HEK293 cells stably expressing human NaV channel isoforms together with the β1 auxiliary subunit (SB Drug Discovery, Glasgow, UK) were propagated in Minimal Essential Medium (MEM; Sigma-Aldrich, St. Louis, MO, USA) containing 10% FBS, 100 U/mL penicillin, 100 µg/mL streptomycin, 2 mM L-glutamine, and selective antibiotics (blasticidin, geneticin, and zeocin) at concentrations recommended by the supplier. […]
(§2) Sodium channel currents were recorded from HEK293 cells expressing human NaV isoforms together with the β1 auxiliary subunit (SB Drug Discovery, Glasgow, UK) using the QPatch 16X automated whole-cell patch-clamp platform (Sophion Bioscience A/S, Ballerup, Denmark). […] For determining the potency of Oa1a peptides to inhibit peak current, the maximum peak current within the 20 ms at 0 mV was measured. For determining the potency of Oa1a-NH2 to slow fast inactivation, peak current values were measured at 20 ms of the 0 mV depolarization step. […]
(§3) For calcium influx experiments, bioactivity comparisons between venom fractions and controls were based on the difference between the maximal and minimal fluorescence intensity values obtained from single-replicate assays. […] Reversibility and dissociation kinetics were analyzed by fitting data with a single-phase exponential decay model, while voltage-dependence of steady-state activation and inactivation parameters were derived from Boltzmann sigmoid fits of normalized conductance (G/Gmax) or current (I/Imax) values to determine the half-activation or half-inactivation voltages (V50). Data are expressed as mean ± SEM, where n represents the number of individual cells analyzed.

[2] = biological target: hNaV1.3 (Homo sapiens, UniProt Q9NY46); test: hNaV1.3 peak current inhibition, automated whole-cell patch clamp (QPatch 16X); type: cell-based; conditions: for IC50: HEK293 + β1, holding −80 mV, 20 ms step to 0 mV from −120 mV 200 ms prepulse, 5 min incubation, mean ± SEM, 3 to 9 independent experiments, read-out: IC50, inhibition of peak current, NaV1.3
Method: as §1, §2, §3

[3] = biological target: hNaV1.4 (Homo sapiens, UniProt P35499); test: hNaV1.4 peak current inhibition, automated whole-cell patch clamp (QPatch 16X); type: cell-based; conditions: for IC50: HEK293 + β1, holding −80 mV, 20 ms step to 0 mV from −120 mV 200 ms prepulse, 5 min incubation, mean ± SEM, 3 to 9 independent experiments, read-out: IC50, inhibition of peak current, NaV1.4
Method: as §1, §2, §3

[4] = biological target: hNaV1.5 (Homo sapiens, UniProt Q14524); test: hNaV1.5 peak current inhibition, automated whole-cell patch clamp (QPatch 16X); type: cell-based; conditions: for IC50: HEK293 + β1, holding −80 mV, 20 ms step to 0 mV from −120 mV 200 ms prepulse, 5 min incubation, mean ± SEM, 3 to 9 independent experiments, read-out: IC50, inhibition of peak current, NaV1.5
Sequence of hNaV1.5 (Q14524 whole entry): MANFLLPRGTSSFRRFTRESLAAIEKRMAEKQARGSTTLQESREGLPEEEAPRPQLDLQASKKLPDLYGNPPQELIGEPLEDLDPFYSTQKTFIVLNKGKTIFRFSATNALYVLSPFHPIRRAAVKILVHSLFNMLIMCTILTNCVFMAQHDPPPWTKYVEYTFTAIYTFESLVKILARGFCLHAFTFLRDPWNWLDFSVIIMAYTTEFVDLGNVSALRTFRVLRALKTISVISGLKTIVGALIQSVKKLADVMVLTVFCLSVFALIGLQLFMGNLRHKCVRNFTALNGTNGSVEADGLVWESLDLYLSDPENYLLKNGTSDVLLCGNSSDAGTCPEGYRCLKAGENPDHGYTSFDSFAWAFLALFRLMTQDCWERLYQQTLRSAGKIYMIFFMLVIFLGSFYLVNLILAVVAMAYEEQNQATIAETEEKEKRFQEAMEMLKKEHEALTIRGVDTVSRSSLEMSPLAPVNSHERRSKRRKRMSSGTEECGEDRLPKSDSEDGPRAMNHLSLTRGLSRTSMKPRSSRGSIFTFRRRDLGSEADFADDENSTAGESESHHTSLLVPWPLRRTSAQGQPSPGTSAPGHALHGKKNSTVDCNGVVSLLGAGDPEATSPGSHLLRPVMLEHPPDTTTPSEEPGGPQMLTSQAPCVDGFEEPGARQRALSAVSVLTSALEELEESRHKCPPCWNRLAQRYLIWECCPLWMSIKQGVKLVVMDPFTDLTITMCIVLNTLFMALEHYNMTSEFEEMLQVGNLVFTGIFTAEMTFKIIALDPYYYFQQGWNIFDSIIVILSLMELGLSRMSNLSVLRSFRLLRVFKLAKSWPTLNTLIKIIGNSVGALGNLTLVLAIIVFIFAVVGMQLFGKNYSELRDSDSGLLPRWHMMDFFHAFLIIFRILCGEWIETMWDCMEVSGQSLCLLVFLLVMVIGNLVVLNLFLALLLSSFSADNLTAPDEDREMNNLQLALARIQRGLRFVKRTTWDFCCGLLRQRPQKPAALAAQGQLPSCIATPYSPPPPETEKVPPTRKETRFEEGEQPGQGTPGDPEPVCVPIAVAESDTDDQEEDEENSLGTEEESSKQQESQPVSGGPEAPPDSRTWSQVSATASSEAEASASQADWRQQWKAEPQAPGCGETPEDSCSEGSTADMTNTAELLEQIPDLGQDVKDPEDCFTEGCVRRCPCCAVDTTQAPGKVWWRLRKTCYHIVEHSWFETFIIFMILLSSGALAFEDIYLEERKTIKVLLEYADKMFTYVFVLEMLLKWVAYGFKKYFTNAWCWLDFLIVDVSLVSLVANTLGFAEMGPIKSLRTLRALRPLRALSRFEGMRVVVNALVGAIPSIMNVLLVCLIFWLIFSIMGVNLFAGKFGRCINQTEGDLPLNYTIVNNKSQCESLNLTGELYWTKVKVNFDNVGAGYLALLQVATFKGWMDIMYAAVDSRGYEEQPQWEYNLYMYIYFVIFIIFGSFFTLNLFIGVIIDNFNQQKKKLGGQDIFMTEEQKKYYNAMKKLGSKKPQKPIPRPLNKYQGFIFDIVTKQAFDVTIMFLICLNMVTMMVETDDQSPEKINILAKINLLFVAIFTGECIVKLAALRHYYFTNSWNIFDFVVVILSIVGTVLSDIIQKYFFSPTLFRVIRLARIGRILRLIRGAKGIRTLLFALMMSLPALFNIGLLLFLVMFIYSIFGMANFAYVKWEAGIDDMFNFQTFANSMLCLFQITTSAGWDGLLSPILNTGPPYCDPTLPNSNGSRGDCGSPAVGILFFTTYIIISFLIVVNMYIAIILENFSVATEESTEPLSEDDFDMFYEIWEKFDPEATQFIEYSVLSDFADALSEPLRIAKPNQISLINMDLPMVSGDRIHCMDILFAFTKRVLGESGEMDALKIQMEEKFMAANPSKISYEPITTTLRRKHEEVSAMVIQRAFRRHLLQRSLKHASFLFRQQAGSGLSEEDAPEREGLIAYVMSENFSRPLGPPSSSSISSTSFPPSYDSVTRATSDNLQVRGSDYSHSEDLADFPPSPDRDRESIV
Method: as §1, §2, §3

[5] = biological target: hNaV1.6 (Homo sapiens, UniProt Q9UQD0); test: hNaV1.6 peak current inhibition, automated whole-cell patch clamp (QPatch 16X); type: cell-based; conditions: for IC50: HEK293 + β1, holding −80 mV, 20 ms step to 0 mV from −120 mV 200 ms prepulse, 5 min incubation, mean ± SEM, 3 to 9 independent experiments, read-out: IC50, inhibition of peak current, NaV1.6
Sequence of hNaV1.6 (Q9UQD0 whole entry): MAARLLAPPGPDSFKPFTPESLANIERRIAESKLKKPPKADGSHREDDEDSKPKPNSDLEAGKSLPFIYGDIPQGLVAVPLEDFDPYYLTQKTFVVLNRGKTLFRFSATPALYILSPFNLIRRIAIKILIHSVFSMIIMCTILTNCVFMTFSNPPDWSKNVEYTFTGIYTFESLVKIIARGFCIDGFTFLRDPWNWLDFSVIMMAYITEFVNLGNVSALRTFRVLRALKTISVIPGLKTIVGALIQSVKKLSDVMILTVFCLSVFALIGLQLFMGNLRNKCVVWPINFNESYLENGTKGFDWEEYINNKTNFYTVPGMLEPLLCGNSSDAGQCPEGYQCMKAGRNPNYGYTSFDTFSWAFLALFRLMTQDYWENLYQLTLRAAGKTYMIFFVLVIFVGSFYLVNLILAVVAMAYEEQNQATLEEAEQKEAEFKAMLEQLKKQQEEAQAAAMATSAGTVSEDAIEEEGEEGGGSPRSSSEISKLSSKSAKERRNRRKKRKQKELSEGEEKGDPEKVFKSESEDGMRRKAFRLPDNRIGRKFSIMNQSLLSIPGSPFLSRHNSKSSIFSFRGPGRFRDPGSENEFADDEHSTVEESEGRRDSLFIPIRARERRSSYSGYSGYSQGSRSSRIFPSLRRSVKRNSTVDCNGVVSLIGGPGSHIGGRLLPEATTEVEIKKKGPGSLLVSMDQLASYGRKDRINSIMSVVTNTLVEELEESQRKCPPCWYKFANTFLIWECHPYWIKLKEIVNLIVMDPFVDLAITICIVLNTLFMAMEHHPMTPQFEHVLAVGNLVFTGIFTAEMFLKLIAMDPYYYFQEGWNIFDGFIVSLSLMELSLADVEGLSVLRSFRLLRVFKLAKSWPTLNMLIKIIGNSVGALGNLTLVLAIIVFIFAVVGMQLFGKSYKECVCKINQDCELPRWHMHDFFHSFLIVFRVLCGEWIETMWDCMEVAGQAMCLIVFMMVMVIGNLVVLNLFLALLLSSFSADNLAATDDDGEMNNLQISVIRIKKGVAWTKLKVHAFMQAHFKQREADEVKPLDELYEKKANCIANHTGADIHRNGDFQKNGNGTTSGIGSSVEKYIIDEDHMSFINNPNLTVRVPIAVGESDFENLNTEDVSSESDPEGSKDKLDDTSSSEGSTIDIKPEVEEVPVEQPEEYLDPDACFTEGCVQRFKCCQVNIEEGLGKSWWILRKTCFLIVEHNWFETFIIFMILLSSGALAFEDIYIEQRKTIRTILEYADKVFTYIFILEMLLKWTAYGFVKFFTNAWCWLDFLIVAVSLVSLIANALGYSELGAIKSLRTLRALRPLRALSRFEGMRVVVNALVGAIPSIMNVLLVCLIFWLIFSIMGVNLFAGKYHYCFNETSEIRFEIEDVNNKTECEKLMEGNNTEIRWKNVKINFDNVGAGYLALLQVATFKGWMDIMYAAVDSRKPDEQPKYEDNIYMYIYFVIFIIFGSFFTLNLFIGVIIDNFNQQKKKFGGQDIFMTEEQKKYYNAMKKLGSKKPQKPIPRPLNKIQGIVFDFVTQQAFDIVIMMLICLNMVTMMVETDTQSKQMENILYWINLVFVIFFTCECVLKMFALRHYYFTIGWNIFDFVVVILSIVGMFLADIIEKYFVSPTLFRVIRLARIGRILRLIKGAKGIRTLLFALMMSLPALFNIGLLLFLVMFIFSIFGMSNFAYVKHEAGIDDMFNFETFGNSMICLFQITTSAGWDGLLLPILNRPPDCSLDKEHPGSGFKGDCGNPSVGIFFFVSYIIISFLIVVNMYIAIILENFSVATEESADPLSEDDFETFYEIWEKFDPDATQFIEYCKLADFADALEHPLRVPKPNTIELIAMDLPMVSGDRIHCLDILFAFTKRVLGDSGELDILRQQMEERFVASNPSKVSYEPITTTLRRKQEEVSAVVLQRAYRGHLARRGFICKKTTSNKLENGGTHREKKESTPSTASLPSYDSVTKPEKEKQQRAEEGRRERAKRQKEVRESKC
Sequence of hNaV1.6 (Q07699 19-218, further chain): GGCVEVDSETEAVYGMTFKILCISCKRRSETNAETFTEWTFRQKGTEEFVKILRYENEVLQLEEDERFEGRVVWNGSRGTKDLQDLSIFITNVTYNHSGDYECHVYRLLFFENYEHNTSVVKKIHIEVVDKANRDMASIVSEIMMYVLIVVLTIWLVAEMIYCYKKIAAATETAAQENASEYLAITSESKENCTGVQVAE
Method: as §1, §2, §3

[6] = biological target: hNaV1.7 (Homo sapiens, UniProt Q15858); test: hNaV1.7 peak current inhibition, automated whole-cell patch clamp (QPatch 16X); type: cell-based; conditions: for IC50: HEK293 + β1, holding −80 mV, 20 ms step to 0 mV from −120 mV 200 ms prepulse, 5 min incubation, mean ± SEM, 3 to 9 independent experiments, read-out: IC50, inhibition of peak current, NaV1.7
Method: as §1, §2, §3

[7] = system: hNaV1.1 to hNaV1.7; test: NaV subtype preference across NaV1.1 to NaV1.7, patch clamp; type: cell-based, human; conditions: NaV1.1 to NaV1.7, closed-state voltage protocol
Method: Unless otherwise specified, all cell culture reagents were obtained from Life Technologies (Carlsbad, CA, USA). The human neuroblastoma cell line SH-SY5Y (ATCC CRL-2266; Manassas, VA, USA) was maintained in RPMI medium supplemented with 15% fetal bovine serum (FBS) and 2 mM L-glutamine. HEK293 cells stably expressing human NaV channel isoforms together with the β1 auxiliary subunit (SB Drug Discovery, Glasgow, UK) were propagated in Minimal Essential Medium (MEM; Sigma-Aldrich, St. Louis, MO, USA) containing 10% FBS, 100 U/mL penicillin, 100 µg/mL streptomycin, 2 mM L-glutamine, and selective antibiotics (blasticidin, geneticin, and zeocin) at concentrations recommended by the supplier. HEK293T cells expressing the human CaV3.2 channel (a generous gift from Prof. Emmanuel Bourinet, Institut de Génomique Fonctionnelle, Université de Montpellier, France, and Prof. Edward Perez-Reyes, University of Virginia School of Medicine, USA) were grown in Dulbecco’s MEM supplemented with 10% FBS, 100 U/mL penicillin, 100 µg/mL streptomycin, and 750 µg/mL geneticin.
as §2, with “Denmark). The external recording solution contained (in mM) the following: 140 NaCl, 3 KCl, 1 CaCl2, 1 MgCl2, 0.1 CdCl2, 20 tetraethylammonium chloride (TEA-Cl), and 5 HEPES; pH was adjusted to 7.3 and osmolarity to 320 mOsm. The internal (pipette) solution consisted of (in mM) the following: 140 CsF, 10 NaCl, 10 HEPES, and 1/5 EGTA/CsOH, also adjusted to pH 7.3 and 320 mOsm.” for “Denmark).”
as §3

Compound | IC50 [1] [nM] | IC50 [2] [nM] | IC50 [3] [nM] | IC50 [4] [nM] | IC50 [5] [nM] | IC50 [6] [nM] | NaV subtype preference of inhibition (in words) [7] | Ratio OH/NH2 (IC50 sOa1a-OH / IC50 sOa1a-NH2), NaV1.1 ([1]; ratio of IC50 values) | Activity on NaV1.3 (in words) ([2]; tested at up to 3 μM) | Activity on NaV1.4 (in words) ([3]; tested at up to 3 μM) | Ratio OH/NH2 (IC50 sOa1a-OH / IC50 sOa1a-NH2), NaV1.5 ([4]; ratio of IC50 values) | Ratio OH/NH2 (IC50 sOa1a-OH / IC50 sOa1a-NH2), NaV1.6 ([5]; ratio of IC50 values) | Ratio OH/NH2 (IC50 sOa1a-OH / IC50 sOa1a-NH2), NaV1.7 ([6]; ratio of IC50 values)
CC(C)C[C@@H]1NC(=O)[C@H](Cc2ccccc2)NC(=O)[C@H](Cc2ccc(O)cc2)NC(=O)[C@H](CCCNC(=N)N)NC(=O)[C@@H](NC(=O)[C@@H](N)CCC(=O)O)CSSC[C@@H]2NC(=O)[C@@H]3CSSC[C@@H](C(=O)N[C@H](C(=O)N[C@@H](Cc4c[nH]c5ccccc45)C(=O)N[C@@H](CC(=O)O)C(=O)N[C@@H](Cc4c[nH]c5ccccc45)C(=O)N[C@H](C(=O)N[C@@H](Cc4ccccc4)C(N)=O)[C@@H](C)O)C(C)C)NC(=O)[C@H](Cc4c[nH]c5ccccc45)NC(=O)[C@H](CCC(N)=O)NC(=O)[C@H](Cc4c[nH]cn4)NC(=O)[C@H](CCCCN)NC(=O)[C@H](CC(N)=O)NC(=O)[C@H](Cc4c[nH]cn4)NC(=O)[C@H](CSSC[C@H](NC(=O)CNC(=O)CNC1=O)C(=O)N[C@@H](CO)C(=O)N[C@@H](CCC(N)=O)C(=O)NCC(=O)N[C@@H](CCC(=O)O)C(=O)N[C@@H](CCCCN)C(=O)N3)NC(=O)[C@H](C(C)C)NC(=O)[C@H](CC(C)C)NC(=O)[C@H](Cc1c[nH]cn1)NC(=O)[C@H](CCC(=O)O)NC2=O [sOa1a-NH2] (H-ECRYFLGGCSQGEKCCEHLVCHNKHQWCVWDWTF-NH2; disulfide 2-16, 9-21, 15-28; N-terminus assumed) | 17 ± 1 | 162 ± 8 | 2290 ± 77 | 192 ± 4 | 223 ± 18 | 25 ± 0.4 | strong preference for inhibiting NaV1.1 | – | – | – | – | – | –
CC(C)C[C@@H]1NC(=O)[C@H](Cc2ccccc2)NC(=O)[C@H](Cc2ccc(O)cc2)NC(=O)[C@H](CCCNC(=N)N)NC(=O)[C@@H](NC(=O)[C@@H](N)CCC(=O)O)CSSC[C@@H]2NC(=O)[C@@H]3CSSC[C@@H](C(=O)N[C@H](C(=O)N[C@@H](Cc4c[nH]c5ccccc45)C(=O)N[C@@H](CC(=O)O)C(=O)N[C@@H](Cc4c[nH]c5ccccc45)C(=O)N[C@H](C(=O)N[C@@H](Cc4ccccc4)C(=O)O)[C@@H](C)O)C(C)C)NC(=O)[C@H](Cc4c[nH]c5ccccc45)NC(=O)[C@H](CCC(N)=O)NC(=O)[C@H](Cc4c[nH]cn4)NC(=O)[C@H](CCCCN)NC(=O)[C@H](CC(N)=O)NC(=O)[C@H](Cc4c[nH]cn4)NC(=O)[C@H](CSSC[C@H](NC(=O)CNC(=O)CNC1=O)C(=O)N[C@@H](CO)C(=O)N[C@@H](CCC(N)=O)C(=O)NCC(=O)N[C@@H](CCC(=O)O)C(=O)N[C@@H](CCCCN)C(=O)N3)NC(=O)[C@H](C(C)C)NC(=O)[C@H](CC(C)C)NC(=O)[C@H](Cc1c[nH]cn1)NC(=O)[C@H](CCC(=O)O)NC2=O [sOa1a-OH] (H-ECRYFLGGCSQGEKCCEHLVCHNKHQWCVWDWTF-OH; disulfide 2-16, 9-21, 15-28; N-terminus assumed) | 274 ± 18 | > 3000 | > 3000 | 1270 ± 22 | 568 ± 38 | 410 ± 23 | strong preference for inhibiting NaV1.1 | 16 | no activity | no activity | 6.6 | 2.6 | 16
